From patent publication US6342602B1, “Aryl or heteroaryl amides of tetrahydronaphthalene, chroman, thichroman and 1,2,3,4-tetrahydroquinolinecarboxlic acids, having an electron withdrawing substituent in the aromatic or heteroaromatic moiety, having retinoid-like biological activity” (Allergan Sales, Inc., priority 1995, dated 2002)
Read-outs that look alike come from different tables or passages of the source.

Columns and labels:
Assay in all cases: Ligand binding assay
[1] = target: T1, RARΓ (Homo sapiens, UniProt P13631)
T1 construct: made in house; used as extract protein
T1 sequence (P13631 1-454): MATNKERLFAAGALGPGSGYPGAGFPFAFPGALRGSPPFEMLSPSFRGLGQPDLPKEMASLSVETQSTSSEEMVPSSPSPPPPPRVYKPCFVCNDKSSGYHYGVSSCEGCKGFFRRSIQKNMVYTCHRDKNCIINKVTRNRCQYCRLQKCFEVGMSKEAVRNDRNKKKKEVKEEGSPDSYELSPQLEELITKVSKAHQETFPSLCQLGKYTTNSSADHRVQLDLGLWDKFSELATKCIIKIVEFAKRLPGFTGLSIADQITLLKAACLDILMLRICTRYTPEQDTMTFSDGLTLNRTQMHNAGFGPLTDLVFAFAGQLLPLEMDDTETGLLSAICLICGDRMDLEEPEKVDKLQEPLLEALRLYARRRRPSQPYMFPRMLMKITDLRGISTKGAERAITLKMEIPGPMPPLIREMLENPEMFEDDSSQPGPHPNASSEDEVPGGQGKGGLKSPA
Protocol: (§1) A holoreceptor transactivation assay and a ligand binding assay which measure the ability of the compounds of the invention to bind to the several retinoid receptor subtypes, respectively, are described in published PCT Application No. WO WO93/11755 (particularly on pages 30-33 and 37-41) published on Jun. 24, 1993, the specification of which is also incorporated herein by reference. A description of the ligand binding assay is also provided below.
(§2) All binding assays were performed in a similar fashion. All six receptor types were derived from the expressed receptor type (RAR α, β, τ and RXR α, β, τ) expressed in Baculovirus. Stock solutions of all compounds were prepared as 10 mM ethanol solutions and serial dilutions carried out into 1:1 DMSO; ethanol. Assay buffers consisted of the following for all six receptor assays: 8% glycerol, 120 mM KCl, 8 mM Tris, 5 mM CHAPS 4 mM DTT and 0.24 mM PMSF, pH-7.4@room temperature.
(§3) All receptor biding assays were performed in the same manner. The final assay volume was 250 μl and contained from […] of extract protein depending on receptor being assayed along with 5 nM of [^3H) alltrans retinoic acid or 10 nM [^3H) 9-cis retinoic acid and varying concentrations of competing ligand at concentrations that ranged from 0-10^−5 M. The assays were formatted for a 96 well minitube system. Incubations were carried out at 4° C. until equilibrium was achieved. Non-specific binding was defined as that binding remaining in the presence of 1000 nM of the appropriate unlabeled retinoic acid isomer. At the end of the incubation period, 50 μl of 6.25% hydroxyapitite was added in the appropriate wash buffer. The wash buffer consisted of 100 mM KCl, 10 mM Tris and either 5 mM CHAPS (RXR α, β, τ) or 0.5% Triton X-100 (RAR α, β, τ). The mixture was vortexed and incubated for 10 minutes at 4° C., centrifuged and the supernatant removed. The hydroxyapitite was washed three more times with the appropriate wash buffer. The receptor-ligand complex was adsorbed by the hydroxyapitite. The amount of receptor-ligand complex was determined by liquid scintillation counting of hydroxyapitite pellet.
(§4) After correcting for non-specific binding, IC50 values were determined. […] The IC50 value was determined graphically from a loglogit plot of the data. The Kd values were determined by application of the ChengPrussof equation to the IC50 values, the labeled ligand concentration and the Kd of the labeled ligand.
(§5) The results of ligand binding assay are expressed in Kd numbers. (See Cheng et al. Biochemical Pharmacology Vol. 22 pp 3099-3108, expressly incorporated herein by reference.)

[2] = target: T2, RARα (Homo sapiens, UniProt P10276)
T2 construct: made in house; used as extract protein
T2 sequence (P10276 1-462): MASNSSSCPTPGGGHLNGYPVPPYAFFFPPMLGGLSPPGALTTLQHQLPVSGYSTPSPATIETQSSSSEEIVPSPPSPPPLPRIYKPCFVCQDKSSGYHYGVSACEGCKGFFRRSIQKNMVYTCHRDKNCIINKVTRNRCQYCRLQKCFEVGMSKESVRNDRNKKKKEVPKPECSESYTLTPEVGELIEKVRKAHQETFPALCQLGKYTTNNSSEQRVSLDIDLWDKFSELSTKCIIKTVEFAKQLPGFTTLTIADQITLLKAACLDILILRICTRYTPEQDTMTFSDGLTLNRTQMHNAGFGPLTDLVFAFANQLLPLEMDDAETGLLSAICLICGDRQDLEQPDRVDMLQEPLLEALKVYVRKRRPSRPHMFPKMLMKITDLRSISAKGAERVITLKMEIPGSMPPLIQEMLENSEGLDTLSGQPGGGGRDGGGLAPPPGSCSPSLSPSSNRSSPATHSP
Protocol: as §1, §2, §3, §4, §5

[3] = target: T3, RXRΓ (Homo sapiens, UniProt P48443); settings: receptor expressed in Baculovirus; competition with [3H] retinoic acid; Cheng-Prusoff from IC50
T3 construct: made in house; used as extract protein
T3 sequence (P48443 1-463): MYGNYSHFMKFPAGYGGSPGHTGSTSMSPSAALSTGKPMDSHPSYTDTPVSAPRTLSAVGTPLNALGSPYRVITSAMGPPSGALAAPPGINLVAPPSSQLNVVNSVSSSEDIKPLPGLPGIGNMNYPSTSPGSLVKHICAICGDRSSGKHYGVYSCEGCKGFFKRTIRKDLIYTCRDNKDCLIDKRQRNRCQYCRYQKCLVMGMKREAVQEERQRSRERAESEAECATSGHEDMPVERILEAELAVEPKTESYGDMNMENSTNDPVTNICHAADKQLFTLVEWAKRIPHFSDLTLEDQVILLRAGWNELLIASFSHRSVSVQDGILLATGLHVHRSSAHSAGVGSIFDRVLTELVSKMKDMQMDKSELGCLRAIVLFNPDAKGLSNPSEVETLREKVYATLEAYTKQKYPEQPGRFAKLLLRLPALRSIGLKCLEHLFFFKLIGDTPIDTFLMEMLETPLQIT
Protocol: as §1, §2, §3, §4, §5

[4] = target: T4, RXRα (Homo sapiens, UniProt P19793); settings: receptor expressed in Baculovirus; competition with [3H] retinoic acid; Cheng-Prusoff from IC50
T4 construct: made in house; used as extract protein
T4 sequence (P19793 1-462): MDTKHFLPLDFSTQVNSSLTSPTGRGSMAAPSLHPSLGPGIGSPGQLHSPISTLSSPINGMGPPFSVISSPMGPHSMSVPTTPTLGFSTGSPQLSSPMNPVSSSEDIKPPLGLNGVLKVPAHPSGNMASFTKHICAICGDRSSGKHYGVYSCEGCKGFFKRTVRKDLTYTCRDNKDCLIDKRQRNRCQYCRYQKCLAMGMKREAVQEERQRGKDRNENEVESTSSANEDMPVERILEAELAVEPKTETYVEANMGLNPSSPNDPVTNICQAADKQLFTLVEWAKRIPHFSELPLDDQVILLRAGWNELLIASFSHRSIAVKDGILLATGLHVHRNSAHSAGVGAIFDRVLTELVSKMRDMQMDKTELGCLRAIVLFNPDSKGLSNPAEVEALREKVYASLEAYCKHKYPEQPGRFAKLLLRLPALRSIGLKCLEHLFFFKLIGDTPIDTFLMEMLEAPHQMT
Protocol: as §1, §2, §3, §4, §5

[5] = receptor expressed in Baculovirus, competition with [3H] retinoic acid, Cheng-Prusoff from IC50, read-out: Kd RARΓ
[6] = receptor expressed in Baculovirus, competition with [3H] retinoic acid, Cheng-Prusoff from IC50, read-out: Kd RARα

Kd [1, 5] | Kd [2, 6] | Kd [3] | Kd [4] | SMILES | Kd [1] | Kd [2]
> 1000 nM | 9 nM | > 1000 nM | > 1000 nM | CC1(C)CCC(C)(C)c2cc(C(=O)Nc3cc(F)c(C(=O)O)c(F)c3)ccc21 [Compound 38] | – | –
> 1000 nM | 162 nM | > 1000 nM | > 1000 nM | CC1(C)CC(C)(C)c2cc(C(=O)Nc3ccc(C(=O)O)c(F)c3)ccc2O1 [Compound 32] | – | –
> 1000 nM | 24 nM | > 1000 nM | > 1000 nM | CC1(C)CC(C)(C)c2cc(C(=O)Nc3ccc(C(=O)O)c(F)c3)cc(Br)c2O1 [Compound 12] | – | –
> 1000 nM | 16 nM | > 1000 nM | > 1000 nM | CC1(C)CC(C)(C)c2cc(C(=O)Nc3ccc(C(=O)O)c(F)c3)cc(I)c2O1 [Compound 20] | – | –
> 1000 nM | 1.9 nM | > 1000 nM | > 1000 nM | CC1(C)CCC(C)(C)c2cc(C(=O)Nc3ccc(C(=O)O)c(F)c3)ccc21 [Compound 2] | – | –
> 1000 nM | 14 nM | > 1000 nM | > 1000 nM | CC1(C)CC(C)(C)c2cc(C(=O)Nc3ccc(C(=O)O)c(F)c3)cc(C(F)(F)F)c2O1 [Compound 14] | – | –
> 1000 nM | 57 nM | > 1000 nM | > 1000 nM | Cc1cc(C(=O)Nc2ccc(C(=O)O)c(F)c2)cc2c1OC(C)(C)CC2(C)C [Compound 22] | – | –

Further lines, the compound ahead of its results:

SMILES | Kd [1, 5] | Kd [2, 6] | Kd [3] | Kd [4] | Kd [1] | Kd [2]
CC1(C)CC(C)(C)c2cc(C(=O)Nc3cc(F)c(C(=O)O)c(F)c3)cc(C(F)(F)F)c2O1 [Compound 18, 2,6-Difluoro-4-[(2′,2′,4′,4′-tetramethyl-8′-trifluoromethylchroman-6′-yl)carbamoyl]benzoic Acid] | > 1000 nM | 51 nM | > 1000 nM | > 1000 nM | – | –
CC1(C)CC(C)(C)c2cc(C(=O)Nc3ccc(C(=O)O)c(F)c3)cc(N=[N+]=[N-])c2O1 [Compound 16, 2-Fluoro-4-[(21′,2′,4′,4′-tetramethyl-8′-azidochroman-6′-yl)carbamoyl]benzoic Acid] | > 1000 nM | 52 nM | > 1000 nM | > 1000 nM | – | –
CC1(C)CCC(C)(C)c2c(Br)cc(C(=O)Nc3ccc(C(=O)O)c(F)c3)cc21 [Compound 6] | > 1000 nM | 1.3 nM | > 1000 nM | > 1000 nM | – | –
CC1(C)CCC(C)(C)c2cc(C(=O)Nc3ccc(C(=O)O)cc3)c(F)cc21 [Compound 4] | 96 nM | 23 nM | > 1000 nM | > 1000 nM | – | –
CC1(C)CCC(C)(C)c2cc(C(=O)Nc3ccc(C(=O)O)c(F)c3)c(O)cc21 [Compound 8] | > 1000 nM | 3 nM | > 1000 nM | > 1000 nM | – | –
CC1(C)CCC(C)(C)c2cc(C(=S)Nc3ccc(C(=O)O)cc3)ccc21 [Compound 26] | > 1000 nM | 15 nM | > 1000 nM | > 1000 nM | – | –
CC1(C)CCC(C)(C)c2c1cc(C(=O)Nc1cc(F)c(C(=O)O)c(F)c1)c(O)c2Br [Compound 36] | – | – | > 1000 nM | > 1000 nM | > 1000 nM | 2.3 nM
